Test results from publication doi:10.1101/2024.09.26.610356v2 (biorxiv, 2024).

Tests used:
[1] = target: T1, human glucose-6-phosphate isomerase (GPI) (Homo sapiens, UniProt P06744); experiment: G6PDH-coupled kinetic assay, dose response; format: biochemical
[2] = target: T1, human glucose-6-phosphate isomerase (GPI); experiment: Michaelis-Menten kinetics, G6PDH-coupled assay; format: biochemical
[3] = target: T1, human glucose-6-phosphate isomerase (GPI); experiment: label-free MST; format: binding
[4] = target: T2, human triosephosphate isomerase (TPI) (Homo sapiens, UniProt P60174); experiment: Michaelis-Menten kinetics, GAPDH-coupled assay; format: biochemical
T2 sequence (P60174 whole entry): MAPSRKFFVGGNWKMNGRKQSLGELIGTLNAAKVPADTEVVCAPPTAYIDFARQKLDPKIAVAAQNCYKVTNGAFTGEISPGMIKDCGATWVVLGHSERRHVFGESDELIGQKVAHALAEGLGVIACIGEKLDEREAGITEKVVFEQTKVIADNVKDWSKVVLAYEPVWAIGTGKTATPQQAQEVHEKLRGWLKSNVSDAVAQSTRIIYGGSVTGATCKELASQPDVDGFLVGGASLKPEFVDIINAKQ

[5] = target: T2, human triosephosphate isomerase (TPI); experiment: GAPDH-coupled kinetic assay, dose response; format: biochemical
[6] = target: T2, human triosephosphate isomerase (TPI); experiment: label-free MST; format: binding

SMILES | EC50 [1] [mM] | Ki [2] [mM] | Kd [3] [mM] | Ki [4] [mM] | EC50 [5] [mM] | Kd [6] [mM]
O=C(CO)COP(=O)(O)O [Dihydroxyacetone phosphate] | 8.24 ± 1.94 | 4.47 | 17.5 ± 0.98 |  |  | 
Nc1ncnc2c1ncn2[C@@H]1O[C@H](COP(=O)(O)OP(=O)(O)O)[C@@H](O)[C@H]1O [ADP] | 8.66 ± 1.37 | 3.97 | 19.3 ± 0.96 |  |  | 
CC(C(=O)O)C(=O)O [Methylmalonate] |  |  |  | 17.3 | 16.3 ± 2.54 | 12.2 ± 1.9
O=P(O)(O)OC(CO)CO [Glycerol-2-phosphate] |  |  |  | 1.89 | 7.31 ± 1.22 | 5.31 ± 1.07
C/C(=C/C(=O)O)C(=O)O [Citraconate] | 8.05 ± 2.34 | 2.17 | 20.1 ± 2.03 |  |  | 

Next, values leading:

EC50 [1] [mM] | Ki [2] [mM] | Kd [3] [mM] | Ki [4] [mM] | EC50 [5] [mM] | Kd [6] [mM] | SMILES
 |  |  | 2.04 | 8.65 ± 1.49 | 6.79 ± 2.3 | O=P(O)(O)OC[C@H](O)CO [Glycerol-3-phosphate]
9.48 ± 2.85 | 7.15 | 14.4 ± 2.07 |  |  |  | O=C(O)/C=C\C(=O)O [Maleate]
14.6 ± 1.99 | 21.1 |  |  |  |  | NO [Hydroxylamine]
11.8 ± 1.33 | 5.61 | 11.1 ± 1.44 |  |  |  | C=C(OP(=O)(O)O)C(=O)O [Phosphoenolpyruvate]
 |  |  | 27.3 | 12.6 ± 0.76 | 19.1 ± 1.38 | O=C(O)C(=O)O [Oxalate]
7.35 ± 1.26 | 9.25 | 13.1 ± 0.64 |  |  |  | NCCc1c[nH]cn1 [Histamine]
